Test: recombinant UMI read abundance after kanamycin selection (control-corrected) (log10(CPM+1)); higher = more efficient recombination; extreme values may be limits of the assay; sequences stand for … in AGTGCAGAGAAAATCGGCCAGTTTTCTCTGCCTGCAGTCCGCATGCCGTGGGACCCCTTGGGTTCTAACCTGTTGCCTAGATTTATGCAGCGGACTGCCTTTCTCCCAAAGTGATAAACCGG…AGGTTGGTTTCACT; site = the 11-nt donor
In short: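 For the IS621 bridge recombinase, a pooled Escherichia coli screen tested donor and donor-binding-loop pairs. Cells received the pair library together with a target plasmid encoding a fixed target and T7-inducible recombinase, then went onto IPTG (0.07 mM) plus kanamycin or unselected plates in duplicate. After PCR across the donor–target junction and sequencing, recombinant UMI counts were normalized to CPM, averaged, and scaled by control-derived factors. Each value is given as log10(CPM+1).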
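Further: IS621 bridge recombinase in Escherichia coli cells against a fixed T5 target plasmid.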

Question: With “GTCTATACATGGACCGGTTTTCCCGGTAATCCGTATTTGGA (site GTCTATACTTC)” as the sequence, how does the “recombinant UMI read abundance (log10)” value read?
Answer: 1.08

Question: With “GTCTGATCATGGACCGGTTTTCCCGGTAATCCGTATTTGAA (site GTCTGATCTTT)” as the sequence, how does the “recombinant UMI read abundance (log10)” value read?
Answer: 1.66

Question: For “GTGAAAACATGGACCGGTTTTCCCGGTAATCCGTATTTGCT (site GAGAAAACTAG)”, which “recombinant UMI read abundance (log10)” value is on record?
Answer: 0.918

Question: For “GTGAAAACATGGACCGGTTTTCCCGGTAATCCGTATTTGCT (site GCGAAAACTAG)”, which “recombinant UMI read abundance (log10)” value is on record?
Answer: 0

Question: With “GTGAAAACATGGACCGGTTTTCCCGGTAATCCGTATTTGCT (site GGGAAAACTAG)” as the sequence, how does the “recombinant UMI read abundance (log10)” value read?
Answer: 0

Question: Which “recombinant UMI read abundance (log10)” value does the source give for “GTGAAAACATGGACCGGTTTTCCCGGTAATCCGTATTTGCT (site GTGAAAACTAG)” here?
Answer: 1.46

Question: With “GTGAAACCATGGACCGGTTTTCCCGGTAATCCGTATTTGAT (site GTGAAACCTAT)” as the sequence, how does the “recombinant UMI read abundance (log10)” value read?
Answer: 0

Question: With “GTGAGAACATGGACCGGTTTTCCCGGTAATCCGTATTTGCT (site GTGAGAACTAG)” as the sequence, how does the “recombinant UMI read abundance (log10)” value read?
Answer: 2.25

Question: For “GTGAGGGCATGGACCGGTTTTCCCGGTAATCCGTATTTGAA (site GTGAGGGCTTT)”, which “recombinant UMI read abundance (log10)” value is on record?
Answer: 1.83

Question: Which “recombinant UMI read abundance (log10)” value does the source give for “GTGATGGCATGGACCGGTTTTCCCGGTAATCCGTATTTGAT (site GTGATGGCTAT)” here?
Answer: 2.31

Question: Which “recombinant UMI read abundance (log10)” value does the source give for “GTGATTCCATGGACCGGTTTTCCCGGTAATCCGTATTTGAC (site GTGATTCCTGT)” here?
Answer: 1.95

Question: Which “recombinant UMI read abundance (log10)” value does the source give for “GTGCAAGCATGGACCGGTTTTCCCGGTAATCCGTATTTGGT (site GTGCAAGCTAC)” here?
Answer: 1.28

Question: Which “recombinant UMI read abundance (log10)” value does the source give for “GTGCAAGCATGGACCGGTTTTCCCGGTAATCCGTATTTGGT (site GTGCACGCTAC)” here?
Answer: 0.00225

Question: Which “recombinant UMI read abundance (log10)” value does the source give for “GTGCAAGCATGGACCGGTTTTCCCGGTAATCCGTATTTGGT (site GTGCAGGCTAC)” here?
Answer: 0.602

Question: Which “recombinant UMI read abundance (log10)” value does the source give for “GTGCAAGCATGGACCGGTTTTCCCGGTAATCCGTATTTGGT (site GTGCATGCTAC)” here?
Answer: 0.222

Question: With “GTGCAGGCATGGACCGGTTTTCCCGGTAATCCGTATTTGTC (site GTGCAGGCTGA)” as the sequence, how does the “recombinant UMI read abundance (log10)” value read?
Answer: 2.44

Question: With “GTGCATCCATGGACCGGTTTTCCCGGTAATCCGTATTTGCC (site GTGCATCCTGG)” as the sequence, how does the “recombinant UMI read abundance (log10)” value read?
Answer: 0.749

Question: With “GTGCATCCATGGACCGGTTTTCCCGGTAATCCGTATTTGGT (site GTGCATACTAC)” as the sequence, how does the “recombinant UMI read abundance (log10)” value read?
Answer: 0.0234

Question: Which “recombinant UMI read abundance (log10)” value does the source give for “GTGCATCCATGGACCGGTTTTCCCGGTAATCCGTATTTGGT (site GTGCATCCTAC)” here?
Answer: 0.56

Question: For “GTGCATCCATGGACCGGTTTTCCCGGTAATCCGTATTTGGT (site GTGCATGCTAC)”, which “recombinant UMI read abundance (log10)” value is on record?
Answer: 0

Question: For “GTGCATCCATGGACCGGTTTTCCCGGTAATCCGTATTTGGT (site GTGCATTCTAC)”, which “recombinant UMI read abundance (log10)” value is on record?
Answer: 0.438

Question: For “GTGCATGCATGGACCGGTTTTCCCGGTAATCCGTATTTGAT (site GTGCATGCTAA)”, which “recombinant UMI read abundance (log10)” value is on record?
Answer: 0.00938

Question: With “GTGCATGCATGGACCGGTTTTCCCGGTAATCCGTATTTGAT (site GTGCATGCTAC)” as the sequence, how does the “recombinant UMI read abundance (log10)” value read?
Answer: 0.265

Question: With “GTGCATGCATGGACCGGTTTTCCCGGTAATCCGTATTTGAT (site GTGCATGCTAG)” as the sequence, how does the “recombinant UMI read abundance (log10)” value read?
Answer: 0.649

Question: With “GTGCATGCATGGACCGGTTTTCCCGGTAATCCGTATTTGAT (site GTGCATGCTAT)” as the sequence, how does the “recombinant UMI read abundance (log10)” value read?
Answer: 2.34

Question: Which “recombinant UMI read abundance (log10)” value does the source give for “GTGCATGCATGGACCGGTTTTCCCGGTAATCCGTATTTGGG (site GTGCATGCTAC)” here?
Answer: 0.00412

Question: For “GTGCATGCATGGACCGGTTTTCCCGGTAATCCGTATTTGGG (site GTGCATGCTCC)”, which “recombinant UMI read abundance (log10)” value is on record?
Answer: 0.746

Question: Which “recombinant UMI read abundance (log10)” value does the source give for “GTGCATGCATGGACCGGTTTTCCCGGTAATCCGTATTTGGG (site GTGCATGCTGC)” here?
Answer: 0

Question: With “GTGCATGCATGGACCGGTTTTCCCGGTAATCCGTATTTGGG (site GTGCATGCTTC)” as the sequence, how does the “recombinant UMI read abundance (log10)” value read?
Answer: 0.0162

Question: With “GTGCATGCATGGACCGGTTTTCCCGGTAATCCGTATTTGTT (site GTGCATGCTAA)” as the sequence, how does the “recombinant UMI read abundance (log10)” value read?
Answer: 2.04

Question: With “GTGCATGCATGGACCGGTTTTCCCGGTAATCCGTATTTGTT (site GTGCATGCTAC)” as the sequence, how does the “recombinant UMI read abundance (log10)” value read?
Answer: 0.0189

Question: For “GTGCATGCATGGACCGGTTTTCCCGGTAATCCGTATTTGTT (site GTGCATGCTAG)”, which “recombinant UMI read abundance (log10)” value is on record?
Answer: 1.48

Question: For “GTGCATGCATGGACCGGTTTTCCCGGTAATCCGTATTTGTT (site GTGCATGCTAT)”, which “recombinant UMI read abundance (log10)” value is on record?
Answer: 1.31

Question: With “GTGCATTCATGGACCGGTTTTCCCGGTAATCCGTATTTGGT (site GTGCATACTAC)” as the sequence, how does the “recombinant UMI read abundance (log10)” value read?
Answer: 0.361

Question: With “GTGCATTCATGGACCGGTTTTCCCGGTAATCCGTATTTGGT (site GTGCATCCTAC)” as the sequence, how does the “recombinant UMI read abundance (log10)” value read?
Answer: 0.0125

Question: For “GTGCATTCATGGACCGGTTTTCCCGGTAATCCGTATTTGGT (site GTGCATGCTAC)”, which “recombinant UMI read abundance (log10)” value is on record?
Answer: 0

Question: Which “recombinant UMI read abundance (log10)” value does the source give for “GTGCATTCATGGACCGGTTTTCCCGGTAATCCGTATTTGGT (site GTGCATTCTAC)” here?
Answer: 1.99

Question: Which “recombinant UMI read abundance (log10)” value does the source give for “GTGCCTGCATGGACCGGTTTTCCCGGTAATCCGTATTTGGT (site GTGCATGCTAC)” here?
Answer: 0.0028

Question: With “GTGCCTGCATGGACCGGTTTTCCCGGTAATCCGTATTTGGT (site GTGCCTGCTAC)” as the sequence, how does the “recombinant UMI read abundance (log10)” value read?
Answer: 0.328

Question: With “GTGCCTGCATGGACCGGTTTTCCCGGTAATCCGTATTTGGT (site GTGCGTGCTAC)” as the sequence, how does the “recombinant UMI read abundance (log10)” value read?
Answer: 0.00453

Question: With “GTGCCTGCATGGACCGGTTTTCCCGGTAATCCGTATTTGGT (site GTGCTTGCTAC)” as the sequence, how does the “recombinant UMI read abundance (log10)” value read?
Answer: 0.00506

Question: Which “recombinant UMI read abundance (log10)” value does the source give for “GTGCTCACATGGACCGGTTTTCCCGGTAATCCGTATTTGAT (site GAGCTCACTAT)” here?
Answer: 0.557

Question: For “GTGCTCACATGGACCGGTTTTCCCGGTAATCCGTATTTGAT (site GCGCTCACTAT)”, which “recombinant UMI read abundance (log10)” value is on record?
Answer: 0.322

Question: For “GTGCTCACATGGACCGGTTTTCCCGGTAATCCGTATTTGAT (site GGGCTCACTAT)”, which “recombinant UMI read abundance (log10)” value is on record?
Answer: 0.0156

Question: For “GTGCTCACATGGACCGGTTTTCCCGGTAATCCGTATTTGAT (site GTGCTCACTAT)”, which “recombinant UMI read abundance (log10)” value is on record?
Answer: 1.9

Question: For “GTGCTTACATGGACCGGTTTTCCCGGTAATCCGTATTTGGC (site GTGCTTACTGC)”, which “recombinant UMI read abundance (log10)” value is on record?
Answer: 1.9

Question: For “GTGGAGCCATGGACCGGTTTTCCCGGTAATCCGTATTTGAT (site GTGGAGCCTAT)”, which “recombinant UMI read abundance (log10)” value is on record?
Answer: 0.00342

Question: Which “recombinant UMI read abundance (log10)” value does the source give for “GTGGATACATGGACCGGTTTTCCCGGTAATCCGTATTTGTG (site GTGGATACTCA)” here?
Answer: 1.92

Question: Which “recombinant UMI read abundance (log10)” value does the source give for “GTGGGGGCATGGACCGGTTTTCCCGGTAATCCGTATTTGTG (site GTGGAGGCTCA)” here?
Answer: 1.07

Question: For “GTGGGGGCATGGACCGGTTTTCCCGGTAATCCGTATTTGTG (site GTGGCGGCTCA)”, which “recombinant UMI read abundance (log10)” value is on record?
Answer: 0.0124

Question: With “GTGGGGGCATGGACCGGTTTTCCCGGTAATCCGTATTTGTG (site GTGGGGGCTCA)” as the sequence, how does the “recombinant UMI read abundance (log10)” value read?
Answer: 0.984

Question: For “GTGGGGGCATGGACCGGTTTTCCCGGTAATCCGTATTTGTG (site GTGGTGGCTCA)”, which “recombinant UMI read abundance (log10)” value is on record?
Answer: 0.0315

Question: Which “recombinant UMI read abundance (log10)” value does the source give for “GTGGGTTCATGGACCGGTTTTCCCGGTAATCCGTATTTGCA (site GTGGGTTCTTG)” here?
Answer: 2.55

Question: Which “recombinant UMI read abundance (log10)” value does the source give for “GTGGTTCCATGGACCGGTTTTCCCGGTAATCCGTATTTGGT (site GTAGTTCCTAC)” here?
Answer: 0.553

Question: With “GTGGTTCCATGGACCGGTTTTCCCGGTAATCCGTATTTGGT (site GTCGTTCCTAC)” as the sequence, how does the “recombinant UMI read abundance (log10)” value read?
Answer: 0

Question: With “GTGGTTCCATGGACCGGTTTTCCCGGTAATCCGTATTTGGT (site GTGGTTCCTAC)” as the sequence, how does the “recombinant UMI read abundance (log10)” value read?
Answer: 0.0114

Question: With “GTGGTTCCATGGACCGGTTTTCCCGGTAATCCGTATTTGGT (site GTTGTTCCTAC)” as the sequence, how does the “recombinant UMI read abundance (log10)” value read?
Answer: 0.0137

From the supplement of paper PMC11208160
